From US10800778B2 (Entasis Therapeutics Limited, priority 2016, dated 2020) come the findings set out here.

Data set [1] in a line: Stability in pH 7.4 buffer (no enzyme). In kind it is physicochemical. Conditions: read-out: T1/2 pH 7.4 Buffer. As for the experimental part:
(§1) The human intestinal S9 with the absence of PMSF, human liver S9, rat intestinal S9, and rat liver S9 preparations were obtained from Xenotech (Lenexa, Kans.). The 500-μL incubation solution contained 0.8 mg/mL of enzyme (or no enzyme for buffer stability), 10 μM of test compounds in 100 mM of HEPES buffer, pH 7.4. The hydrolysis reactions were conducted in a 1-mL glass insert (Analytical Sales, Pompton Plains, N.J.) in a shake water bath at 37° C. At 0, 2, 5, 10, 15, 30 and 60 min, the reaction was terminated by pipetting 50 μL incubate to a 96 DeepWell plate (Thermo Fisher Scientific, Rochester, N.Y.) containing 100 μL of acetonitrile with 250 ng/mL of Carbutamide (Sigma-Aldrich, St. Louis, Miss.) as the internal standard. The crashed solutions were then vortexed well followed by centrifuge at 4000 rpm for 15 min at 4° C. The extract was transferred to a new 96 DeepWell plate for LC-MS/MS analysis.
(§2) LC-MS/MS analysis was done using an AB Sciex QTrap 6500 mass spectrometer under positive ionization mode, coupled to a Schimadzu Nexera LC system.
(§3) A Waters Atlantis T3 (3 μm, 3.0×50 mm) column was used for separation. The mobile phase consisted 0.1% formic acid in water (A) and 0.1% formic acid in acetonitrile (B) with a flow rate set at 1.2 mL/min. For the prodrug analysis, the Multiple Reaction Monitoring (MRM) specific for each compound was set up so that both prodrug and its hydrolyzed active can be monitored simultaneously.
(§4) Half-lives listed are based on disappearance of starting ester.

Data set [2] in a line: Stability/conversion of esters in rat intestinal S9. In kind it is in vitro ADME. As for the experimental part: as §1, §2, §3, §4
Data set [3] is described as follows: Stability/conversion of esters in rat liver S9. In kind it is in vitro ADME. Here is the method:
as §1, §2, §3, §4

Data set [4] is described as follows: Stability/conversion of esters in human intestinal S9. In kind it is in vitro ADME. As for the experimental part:
as §1, §2, §3, §4

Data set [5] in a line: Stability/conversion of esters in human liver S9. In kind it is in vitro ADME. Here is the method: as §1, §2, §3, §4
[6] abbreviates: intestinal S9, pH 7.4, read-out: T1/2 Rat Intestinal S9.
Setting [7] is: liver S9, pH 7.4, read-out: T1/2 Rat Liver S9.
Setting [8] is: intestinal S9 (without PMSF), pH 7.4, read-out: T1/2 Human Intestinal S9.
[9] abbreviates: liver S9, pH 7.4, read-out: T1/2 Human Liver S9.
Where [10] appears, read: s9, pH 7.4, read-out: T1/2 Rat Intestinal S9.
[11] abbreviates: s9, pH 7.4, read-out: T1/2 Rat Liver S9.
The mark [12] stands for this setting: s9, pH 7.4, read-out: T1/2 Human Intestinal S9.
Setting [13] is: s9, pH 7.4, read-out: T1/2 Human Liver S9.

For the compound `CCCCCOC(=O)[C@@H](F)ON1C(=O)N2C[C@H]1C=C(C)[C@H]2C(N)=O` [Example 51, pentyl (2R)-2-[[(2S,5R)-2-carbamoyl-3-methyl-7-oxo-1,6-diazabicyclo[3.2.1]oct-3-en-6-yl]oxy]-2-fluoro-acetate], the half-life at 10 μM in data set [1] (HEPES buffer without enzyme) came out at 75 min; in data set [2] (setting [6]), 4.1 min; in data set [3] (setting [7]), 1.7 min; in data set [4] (setting [8]), 1.5 min; in data set [5] (setting [9]) it was 6.4 min.

As for `CCCCCCOC(=O)[C@@H](F)ON1C(=O)N2C[C@H]1C=C(C)[C@H]2C(N)=O` [Example 52, hexyl (2R)-2-[[(2S,5R)-2-carbamoyl-3-methyl-7-oxo-1,6-diazabicyclo[3.2.1]oct-3-en-6-yl]oxy]-2-fluoro-acetate], the half-life at 10 μM in data set [1] (HEPES buffer without enzyme) came out at 76 min; in data set [2] (setting [6]), 39 min; in data set [3] (setting [7]), 0.45 min; in data set [4] (setting [8]), 5.7 min; in data set [5] (setting [9]) it was 0.84 min.

`CC1=C[C@@H](C(N)=O)N2C[C@@H]1N(OCC(=O)OC(C)C)C2=O` [Example 96, isopropyl 2-(((2S,5R)-2-carbamoyl-4-methyl-7-oxo-1,6-diazabicyclo[3.2.1]oct-3-en-6-yl)oxy)acetate]: the half-life at 10 μM in data set [1] (HEPES buffer without enzyme) was greater than 100 min; in data set [2] (setting [6]), 211 min; in data set [3] (setting [7]) it was 10.3 min; in data set [4] (setting [8]), 1480 min; in data set [5] (setting [9]) it was 57 min.

Take `CC1=C[C@@H]2CN(C(=O)N2O[C@H](F)C(=O)OC(C)OC(=O)OC(C)C)[C@@H]1C(N)=O` (stereo partly drawn) [Example 53, 1-isopropoxycarbonyloxyethyl (2R)-2-[[(2S,5R)-2-carbamoyl-3-methyl-7-oxo-1,6-diazabicyclo[3.2.1]oct-3-en-6-yl]oxy]-2-fluoro-acetate]: the half-life at 10 μM in data set [1] (HEPES buffer without enzyme) was 4.8 min; in data set [2] (setting [6]), 4.2 min; in data set [3] (setting [7]), 2 min; in data set [4] (setting [8]), less than 1 min; in data set [5] (setting [9]), 1.7 min.

Turning to `CCOC(=O)[C@H](F)ON1C(=O)N2C[C@H]1C(C)=C[C@H]2C(N)=O` [Example 32, (2S)-ethyl 2-(((2S,5R)-2-carbamoyl-4-methyl-7-oxo-1,6-diazabicyclo[3.2.1]oct-3-en-6-yl)oxy)-2-fluoroacetate], the half-life at 10 μM is 22 min in data set [1] (buffer); 18 min in data set [2] (setting [10]); 2.4 min in data set [3] (setting [11]); 6.9 min in data set [4] (setting [12]); 2.4 min in data set [5] (setting [13]).

For `CCCOC(=O)[C@@H](F)ON1C(=O)N2C[C@H]1C=C(C)[C@H]2C(N)=O` [Example 48, propyl (2R)-2-[[(2S,5R)-2-carbamoyl-3-methyl-7-oxo-1,6-diazabicyclo[3.2.1]oct-3-en-6-yl]oxy]-2-fluoro-acetate], the half-life at 10 μM in data set [1] (HEPES buffer without enzyme) came out at 62 min; in data set [2] (setting [6]), 50 min; in data set [3] (setting [7]), 3 min; in data set [4] (setting [8]) it was 42 min; in data set [5] (setting [9]), 6.1 min.

As to `CCCCOC(=O)[C@@H](F)ON1C(=O)N2C[C@H]1C=C(C)[C@H]2C(N)=O` [Example 50, butyl (2R)-2-[[(2S,5R)-2-carbamoyl-3-methyl-7-oxo-1,6-diazabicyclo[3.2.1]oct-3-en-6-yl]oxy]-2-fluoro-acetate], the half-life at 10 μM came out at 120 min in data set [1] (HEPES buffer without enzyme); 30 min in data set [2] (setting [6]); 2.8 min in data set [3] (setting [7]); 73 min in data set [4] (setting [8]); 3.5 min in data set [5] (setting [9]).

In the case of `CC1=C[C@@H]2CN(C(=O)N2O[C@H](F)C(=O)OCC(C)C)[C@@H]1C(N)=O` [Example 49, isobutyl (2R)-2-[[(2S,5R)-2-carbamoyl-3-methyl-7-oxo-1,6-diazabicyclo[3.2.1]oct-3-en-6-yl]oxy]-2-fluoro-acetate], the half-life at 10 μM stood at 68 min in data set [1] (HEPES buffer without enzyme); 26 min in data set [2] (setting [6]); 1.8 min in data set [3] (setting [7]); 32 min in data set [4] (setting [8]); 6.9 min in data set [5] (setting [9]).

As to `CC1=C[C@@H]2CN(C(=O)N2O[C@H](F)C(=O)Oc2ccc3c(c2)CCC3)[C@@H]1C(N)=O` [Example 65, indan-5-yl (2R)-2-[[(2S,5R)-2-carbamoyl-3-methyl-7-oxo-1,6-diazabicyclo[3.2.1]oct-3-en-6-yl]oxy]-2-fluoro-acetate], the half-life at 10 μM in data set [1] (HEPES buffer without enzyme) is 1.7 min; in data set [2] (setting [6]), 1.3 min; in data set [3] (setting [7]), less than 1 min; in data set [4] (setting [8]), less than 1 min; in data set [5] (setting [9]), less than 1 min.

With `CCOC(=O)[C@H](F)ON1C(=O)N2C[C@H]1C=C(C)[C@H]2C(N)=O` [Example 2, (S)-ethyl 2-((2S,5R)-2-carbamoyl-3-methyl-7-oxo-1,6-diazabicyclo[3.2.1]oct-3-en-6-yloxy)-2-fluoroacetate], the half-life at 10 μM in data set [1] (buffer) was determined as 29 min; in data set [2] (setting [10]) it was 24 min; in data set [3] (setting [11]) it was 1.4 min; in data set [4] (setting [12]) it was 21 min; in data set [5] (setting [13]) it was 1.9 min.

On to `CC1=C[C@@H]2CN(C(=O)N2O[C@H](F)C(=O)OC(C(C)C)C(C)C)[C@@H]1C(N)=O` [Example 15, 2,4-dimethylpentan-3-yl (2R)-{[(2S,5R)-2-carbamoyl-3-methyl-7-oxo-1,6-diazabicyclo[3.2.1]oct-3-en-6-yl]oxy}(fluoro)ethanoate], for which the half-life at 10 μM is 98 min in data set [1] (HEPES buffer without enzyme); greater than 100 min in data set [2] (setting [6]); 1.5 min in data set [3] (setting [7]); greater than 100 min in data set [4] (setting [8]); 12.4 min in data set [5] (setting [9]).

Regarding `CCOC(=O)[C@@H](F)ON1C(=O)N2C[C@H]1C(C)=C[C@H]2C(N)=O` [Example 31, (2R)-ethyl 2-(((2S,5R)-2-carbamoyl-4-methyl-7-oxo-1,6-diazabicyclo[3.2.1]oct-3-en-6-yl)oxy)-2-fluoroacetate], the half-life at 10 μM in data set [1] (buffer) was 44 min; in data set [2] (setting [10]), 42 min; in data set [3] (setting [11]), 20 min; in data set [4] (setting [12]), 35 min; in data set [5] (setting [13]), 27 min.

For the compound `CCOC(=O)CON1C(=O)N2C[C@H]1C(C)=C[C@H]2C(N)=O` [Example 92, ethyl 2-(((2S,5R)-2-carbamoyl-4-methyl-7-oxo-1,6-diazabicyclo[3.2.1]oct-3-en-6-yl)oxy)acetate], the half-life at 10 μM was 161 min in data set [1] (HEPES buffer without enzyme); 397 min in data set [2] (setting [6]); 11 min in data set [3] (setting [7]); 193 min in data set [4] (setting [8]); 24.8 min in data set [5] (setting [9]).

As to `CC1=C[C@@H](C(N)=O)N2C[C@@H]1N(O[C@@H](F)C(=O)OC(C)C)C2=O` [Example 36, (2S)-isopropyl 2-(((2S,5R)-2-carbamoyl-4-methyl-7-oxo-1,6-diazabicyclo[3.2.1]oct-3-en-6-yl)oxy)-2-fluoroacetate], the half-life at 10 μM in data set [1] (buffer) turned out to be 91 min; in data set [2] (setting [10]), 68 min; in data set [3] (setting [11]), 3 min; in data set [4] (setting [12]), 36 min; in data set [5] (setting [13]), 8.5 min.

Turning to `CCOC(=O)[C@H](F)ON1C(=O)N2C[C@H]1C=C(C)[C@H]2C(=O)NCO` [Example 85, ethyl (2S)-2-fluoro-2-[[(2S,5R)-2-(hydroxymethylcarbamoyl)-3-methyl-7-oxo-1,6-diazabicyclo[3.2.1]oct-3-en-6-yl]oxy]acetate], the half-life at 10 μM in data set [1] (HEPES buffer without enzyme) turned out to be 26 min; in data set [2] (setting [6]) it was 21 min; in data set [3] (setting [7]) it was 3.8 min; in data set [4] (setting [8]), 20 min; in data set [5] (setting [9]), 3.5 min.

In the case of `CCOC(=O)[C@@H](F)ON1C(=O)N2C[C@H]1C=C(C)[C@H]2C(N)=O` [Example 1, (R)-ethyl 2-((2S,5R)-2-carbamoyl-3-methyl-7-oxo-1,6-diazabicyclo[3.2.1]oct-3-en-6-yloxy)-2-fluoroacetate], the half-life at 10 μM came out at 41 min in data set [1] (buffer); 39 min in data set [2] (setting [10]); 4.4 min in data set [3] (setting [11]); 38 min in data set [4] (setting [12]); 6.5 min in data set [5] (setting [13]).

Turning to `CCOC(=O)C(F)(F)ON1C(=O)N2C[C@H]1C=C(C)[C@H]2C(N)=O` [Example 7, ethyl {[(2S,5R)-2-carbamoyl-3-methyl-7-oxo-1,6-diazabicyclo[3.2.1]oct-3-en-6-yl]oxy}(difluoro)acetate], the half-life at 10 μM in data set [1] (HEPES buffer without enzyme) was determined as 3.9 min; in data set [2] (setting [6]), 3.9 min; in data set [3] (setting [7]), 0.5 min; in data set [4] (setting [8]), 2.4 min; in data set [5] (setting [9]) it was 0.8 min.
